Test results reported in paper PMC12299203, “Pyrrolopyrimidines: Design, Synthesis and Antitumor Properties of Novel Tricyclic Pyrrolo [2,3-d]pyrimidine Derivatives” (Molecules, 2025).
Read-outs that look alike come from different tables or passages of the source.

Columns and labels:
[1] = test system: HeLa (cervical) cell line; assay: MTT cytotoxic activity assay, HeLa; type: cell-based, human; settings: 72 h; for IC50: Homo sapiens, HeLa
Experimental: (§1) All the synthesized tricyclic pyrrolo[2,3-d]pyrimidines 8a–j and 10a–f were evaluated for their cytotoxic activity on cancer cell lines derived from the most common cancers: breast (MCF-7), cervical (HeLa), and colon (HT-29). Human cancer cell lines were treated with synthesized compounds, using doxorubicin (DOX) as a positive control, at concentrations of the compounds ranging from 0.001 to 6.561 μM. Cells were incubated at 37 °C for 72 h before measurement, and IC50 values were determined graphically. In our previous research, the cytotoxic activity of compounds 6a and 6b was also evaluated on the same human cancer cell lines used in the current study.
(§2) The MCF-7, HeLa, and HT-29 cell lines, obtained from the Chinese Type Culture Collection, CAS (Shanghai, China), were used as models for cytotoxicity screening. The samples were dissolved in dimethyl sulfoxide (DMSO) (50 μM) and stored at 4 °C. Cell viability was determined using the MTT assay. For the MTT assay, the target cells were seeded in 96-well plates and treated with the synthesized samples for 72 h. Then, 5 mg/mL MTT was added to the culture medium, and 10 μL/well was added. The plate was then incubated in the dark at 37 °C for 4 h. The medium was removed, and 100 μL of dimethyl sulfoxide was added per well. OD570 was measured using Spectra Max M5 (Molecular Devices, CA, USA). Cell viability (%) = ODcompound /ODDMSO × 100%. IC50 values were calculated using GraphPad Prism 9 (CA, USA) by nonlinear regression of the log-transformed data (X Log[X]), with the log (inhibitor) vs. normalized response-variable slope tool.

MCF-7 (breast) cell line = assay: MTT cytotoxic activity assay, MCF-7; type: cell-based, human; settings: for IC50: Homo sapiens, MCF7, 72 h
Experimental: as §1, §2

HT-29 (colon) cell line [2] = assay: MTT cytotoxic activity assay, HT-29; type: cell-based; settings: Homo sapiens, 72 h
Experimental: as §1, §2

[3] = test system: HeLa, MCF-7 and HT-29 cell lines; assay: MTT cytotoxic activity, stated across the three cancer cell lines; type: cell-based, human; settings: span over HeLa, MCF-7, HT-29; for IC50: Homo sapiens, read-out: IC50 across all three cell lines
Experimental: as §1, §2

[4] = test system: HeLa (cervical) cell line; design: method as in PMID 36197552; settings: previous research ref 29; cited from earlier work
HT-29 (colon) cell line [5] = test system: HT-29 (colon) cell line; design: method as in PMID 36197552; settings: previous research ref 29; cited from earlier work
[6] = test system: human embryonic kidney (HEK-293) cells; assay: Cytotoxicity on non-cancerous HEK-293 cells; type: cell-based; settings: HEK293, read-out: IC50 (±SD), HEK-293
Experimental: On the other hand, the inactivity of these leads on HeLa and MCF-7 cells (IC50 ≥ 50 µM) indicates specific tumor type selectivity. […] The selectivity index (SI) was then calculated as the ratio of the IC50 values for HEK-293 and HT-29 cells and is shown in Table 2.
as §2

| Compound | IC50 [1] [µM] | IC50 (MCF-7 (breast) cell line) [µM] | IC50 (HT-29 (colon) cell line [2]) [µM] | other results |
| --- | --- | --- | --- | --- |
| Cn1c(-c2ccc(Br)cc2)cc2/c(=N\c3ccc(Cl)cc3)n3c(nc21)CCCCC3 [Compound 8h, (E)-2-(4-Bromophenyl)-N-(4-chlorophenyl)-1-methyl-1,6,7,8,9,10-hexahydro-4H-pyrrolo[2’,3’:4,5]pyrimido[1,2-a]azepin-4-imine] | ≥ 50 | ≥ 50 | ≥ 50 | – |
| Cn1c(-c2ccc(Cl)cc2)cc2/c(=N\c3ccccc3)n3c(nc21)CCCC3 [Compound 8a, (E)-2-(4-Chlorophenyl)-1-methyl-N-phenyl-6,7,8,9-tetrahydropyrido[1,2-a]pyrrolo[2,3-d]pyrimidin-4(1H)-imine] | ≥ 50 | ≥ 50 | 19.2 ± 0.91 | – |
| Cn1c(-c2ccc(Cl)cc2)c(Cl)c2c(=O)n3c(nc21)CCCC3 [Compound 10a, 3-Chloro-2-(4-chlorophenyl)-1-methyl-6,7,8,9-tetrahydropyrido[1,2-a]pyrrolo[2,3-d]pyrimidin-4(1H)-one] | 22.8 ± 0.98 | 27.5 ± 1.07 | 24.7 ± 1.13 | IC50, HeLa [1]: moderate activity; IC50 [3]: 23 to 28 µM |
| Cn1c(-c2ccc(Cl)cc2)c(Br)c2c(=O)n3c(nc21)CCCC3 [Compound 10b, 3-Bromo-2-(4-chlorophenyl)-1-methyl-6,7,8,9-tetrahydropyrido[1,2-a]pyrrolo[2,3-d]pyrimidin-4(1H)-one] | ≥ 50 | 20.1 ± 0.93 | ≥ 50 | IC50, MCF-7 (MCF-7 (breast) cell line; 72 h): moderate activity; IC50 across all three cell lines [3]: selective yet weaker activity |
| Cn1c(-c2ccc(Br)cc2)c(Br)c2c(=O)n3c(nc21)CCCCC3 [Compound 10e, 3-Bromo-2-(4-bromophenyl)-1-methyl-1,6,7,8,9,10-hexahydro-4H-pyrrolo[2’,3’:4,5]pyrimido[1,2-a]azepin-4-one] | ≥ 50 | ≥ 50 | 16 ± 0.75 | IC50 across all three cell lines [3]: selective yet weaker activity |
| Cn1c(-c2ccc(Br)cc2)cc2c(=O)n3c(nc21)CCCCC3 [Compound 6b, 2-(4-Bromophenyl)-1-methyl-1,6,7,8,9,10-hexahydro-4H-pyrrolo[2’,3’:4,5]pyrimido[1,2-a]azepin-4-one] | – | – | – | IC50 [4]: ≥ 50 µM; IC50 (HT-29 (colon) cell line [5]): 7.61 ± 0.31 µM |
| Cn1c(-c2ccc(Br)cc2)cc2/c(=N\c3ccccc3)n3c(nc21)CCCCC3 [Compound 8f, (E)-2-(4-Bromophenyl)-1-methyl-N-phenyl-1,6,7,8,9,10-hexahydro-4H-pyrrolo[2’,3’:4,5]pyrimido[1,2-a]azepin-4-imine] | ≥ 50 | ≥ 50 | 4.55 ± 0.23 | IC50 [6]: 195 ± 0.07 µM |
| Cn1c(-c2ccc(Cl)cc2)c(I)c2c(=O)n3c(nc21)CCCC3 [Compound 10c, 2-(4-Chlorophenyl)-3-iodo-1-methyl-6,7,8,9-tetrahydropyrido[1,2-a]pyrrolo[2,3-d]pyrimidin-4(1H)-one] | ≥ 50 | ≥ 50 | 34.2 ± 1.6 | IC50 across all three cell lines [3]: selective yet weaker activity |
| Cn1c(-c2ccc(Br)cc2)c(I)c2c(=O)n3c(nc21)CCCCC3 [Compound 10f, 2-(4-Bromophenyl)-3-iodo-1-methyl-1,6,7,8,9,10-hexahydro-4H-pyrrolo[2’,3’:4,5]pyrimido[1,2-a]azepin-4-one] | ≥ 50 | ≥ 50 | 19 ± 0.92 | IC50 across all three cell lines [3]: selective yet weaker activity |
| COc1cccc2c1C(=O)c1c(O)c3c(c(O)c1C2=O)C[C@@](O)(C(=O)CO)C[C@@H]3O[C@H]1C[C@H](N)[C@H](O)[C@H](C)O1 [DOX, doxorubicin, reference compound] | 0.94 ± 0.016 | 0.18 ± 0.011 | 0.82 ± 0.029 | IC50 [3]: 0.18 to 0.94 µM |
| Cn1c(-c2ccc(Cl)cc2)cc2/c(=N\c3ccc(Br)cc3)n3c(nc21)CCCC3 [Compound 8d, (E)-N-(4-Bromophenyl)-2-(4-chlorophenyl)-1-methyl-6,7,8,9-tetrahydropyrido[1,2-a]pyrrolo[2,3-d]pyrimidin-4(1H)-imine] | ≥ 50 | ≥ 50 | ≥ 50 | – |
| Cn1c(-c2ccc(Cl)cc2)cc2c(=O)n3c(nc21)CCCC3 [Compound 6a, 2-(4-Chlorophenyl)-1-methyl-6,7,8,9-tetrahydropyrido[1,2-a]pyrrolo[2,3-d]pyrimidin-4(1H)-one] | – | – | – | IC50 [4]: 6.55 ± 0.31 µM; IC50 (HT-29 (colon) cell line [5]): 24 ± 0.47 µM |
| Cn1c(-c2ccc(Cl)cc2)cc2/c(=N\c3ccc(C(F)(F)F)cc3)n3c(nc21)CCCC3 [Compound 8e, (E)-2-(4-Chlorophenyl)-1-methyl-N-(4-(trifluoromethyl)phenyl)-6,7,8,9-tetrahydropyrido[1,2-a]pyrrolo[2,3-d]pyrimidin-4(1H)-imine] | ≥ 50 | ≥ 50 | ≥ 50 | – |
| Cn1c(-c2ccc(Br)cc2)cc2/c(=N\c3ccc(Br)cc3)n3c(nc21)CCCCC3 [Compound 8i, (E)-N,2-Bis(4-bromophenyl)-1-methyl-1,6,7,8,9,10-hexahydro-4H-pyrrolo[2’,3’:4,5]pyrimido[1,2-a]azepin-4-imine] | ≥ 50 | ≥ 50 | ≥ 50 | – |
| Cn1c(-c2ccc(Br)cc2)cc2/c(=N\c3ccc(C(F)(F)F)cc3)n3c(nc21)CCCCC3 [Compound 8j, (E)-2-(4-Bromophenyl)-1-methyl-N-(4-(trifluoromethyl)phenyl)-1,6,7,8,9,10-hexahydro-4H-pyrrolo[2’,3’:4,5]pyrimido[1,2-a]azepin-4-imine] | ≥ 50 | ≥ 50 | ≥ 50 | – |
| Cn1c(-c2ccc(Br)cc2)c(Cl)c2c(=O)n3c(nc21)CCCCC3 [Compound 10d, 2-(4-Bromophenyl)-3-chloro-1-methyl-1,6,7,8,9,10-hexahydro-4H-pyrrolo[2’,3’:4,5]pyrimido[1,2-a]azepin-4-one] | ≥ 50 | ≥ 50 | ≥ 50 | – |
| Cn1c(-c2ccc(Cl)cc2)cc2/c(=N\c3ccc(F)cc3)n3c(nc21)CCCC3 [Compound 8b, (E)-2-(4-Chlorophenyl)-N-(4-fluorophenyl)-1-methyl-6,7,8,9-tetrahydropyrido[1,2-a]pyrrolo[2,3-d]pyrimidin-4(1H)-imine] | ≥ 50 | ≥ 50 | ≥ 50 | – |
| Cn1c(-c2ccc(Br)cc2)cc2/c(=N\c3ccc(F)cc3)n3c(nc21)CCCCC3 [Compound 8g, (E)-2-(4-Bromophenyl)-N-(4-fluorophenyl)-1-methyl-1,6,7,8,9,10-hexahydro-4H-pyrrolo[2’,3’:4,5]pyrimido[1,2-a]azepin-4-imine] | ≥ 50 | ≥ 50 | 4.01 ± 0.2 | IC50 [6]: 169 ± 0.1 µM |
| Cn1c(-c2ccc(Cl)cc2)cc2/c(=N\c3ccc(Cl)cc3)n3c(nc21)CCCC3 [Compound 8c, (E)-N,2-Bis(4-chlorophenyl)-1-methyl-6,7,8,9-tetrahydropyrido[1,2-a]pyrrolo[2,3-d]pyrimidin-4(1H)-imine] | ≥ 50 | ≥ 50 | ≥ 50 | – |
